ChEMBL document CHEMBL3608269, “Triazole-Linked Glycolipids Enhance the Susceptibility of MRSA to β-Lactam Antibiotics” (ACS Med Chem Lett, 2015)
In brackets after ≈: the same amount, converted by molar mass. Activity calls are given as the source filed them. The rule behind the calls is not given here.

Columns and labels:
[1] = tested on: Staphylococcus aureus; experiment: Antibacterial activity against methicillin-resistant Staphylococcus aureus ATCC 43300 assessed as change in bacterial surface at 32 ug/ml after 4 hrs by scanning electron microscopic analysis; format: functional, organism-based
[2] = tested on: Staphylococcus aureus; experiment: Potentiation of cefoxitin-mediated antibacterial activity against methicillin-resistant Staphylococcus aureus ATCC 43300 assessed as decrease in cefoxitin MIC at 32 ug/ml by checkerboard method relative to control; format: functional
[3] = tested on: Staphylococcus aureus; experiment: Potentiation of oxacillin-mediated antibacterial activity against methicillin-resistant Staphylococcus aureus R314 clinical isolate assessed as decrease in oxacillin MIC at 32 ug/ml after 20 to 24 hrs by CLSI method relative to control; format: functional
[4] = tested on: MEF; experiment: Cytotoxicity against MEF assessed as cell viability at 8 to 128 ug/ml by MTS assay; format: cell-based; conditions: mouse
[5] = tested on: Staphylococcus aureus; experiment: Potentiation of oxacillin-mediated antibacterial activity against methicillin-resistant Staphylococcus aureus R308 clinical isolate assessed as decrease in oxacillin MIC at 32 ug/ml after 20 to 24 hrs by CLSI method relative to control; format: functional
[6] = tested on: Staphylococcus aureus; experiment: Potentiation of oxacillin-mediated antibacterial activity against methicillin-resistant Staphylococcus aureus ATCC 43300 assessed as decrease in oxacillin MIC at 32 ug/ml by checkerboard method relative to control; format: functional
[7] = tested on: Staphylococcus aureus; experiment: Potentiation of oxacillin-mediated antibacterial activity against methicillin-resistant Staphylococcus aureus R302 clinical isolate at 32 ug/ml after 20 to 24 hrs by CLSI method; format: functional
[8] = tested on: Staphylococcus aureus; experiment: Potentiation of ceftriaxone mediated antibacterial activity against methicillin-resistant Staphylococcus aureus ATCC 43300 assessed as decrease in ceftriaxone MIC at 32 ug/ml by checkerboard method relative to control; format: functional
[9] = tested on: Staphylococcus aureus; experiment: Potentiation of oxacillin-mediated antibacterial activity against methicillin-resistant Staphylococcus aureus R53 clinical isolate at 16 ug/ml after 20 to 24 hrs by CLSI method; format: functional
[10] = tested on: Staphylococcus aureus; experiment: Potentiation of oxacillin-mediated antibacterial activity against methicillin-resistant Staphylococcus aureus R49 clinical isolate assessed as decrease in oxacillin MIC at 16 ug/ml after 20 to 24 hrs by CLSI method relative to control; format: functional
[11] = tested on: Staphylococcus aureus; experiment: Potentiation of oxacillin-mediated antibacterial activity against methicillin-resistant Staphylococcus aureus R302 clinical isolate assessed as decrease in oxacillin MIC at 32 ug/ml after 20 to 24 hrs by CLSI method relative to control; format: functional
[12] = tested on: Staphylococcus aureus; experiment: Potentiation of oxacillin-mediated antibacterial activity against methicillin-resistant Staphylococcus aureus R308 clinical isolate at 32 ug/ml after 20 to 24 hrs by CLSI method; format: functional
[13] = tested on: Staphylococcus aureus; experiment: Potentiation of oxacillin-mediated antibacterial activity against methicillin-resistant Staphylococcus aureus R314 clinical isolate at 32 ug/ml after 20 to 24 hrs by CLSI method; format: functional
[14] = tested on: Staphylococcus aureus; experiment: Antibacterial activity against methicillin-resistant Staphylococcus aureus ATCC 43300 assessed as growth inhibition at 32 ug/ml measured up to 24 hrs by time kill assay; format: functional, organism-based
[15] = tested on: Staphylococcus aureus; experiment: Potentiation of oxacillin-mediated antibacterial activity against methicillin-resistant Staphylococcus aureus R16 clinical isolate at 32 ug/ml after 20 to 24 hrs by CLSI method; format: functional
[16] = tested on: Staphylococcus aureus; experiment: Potentiation of oxacillin-mediated antibacterial activity against methicillin-resistant Staphylococcus aureus ATCC 43300 assessed as growth inhibition at 32 ug/ml measured within 6 hrs by time kill assay; format: functional, organism-based
[17] = tested on: Staphylococcus aureus; experiment: Potentiation of oxacillin-mediated antibacterial activity against methicillin-resistant Staphylococcus aureus R304 clinical isolate at 32 ug/ml after 20 to 24 hrs by CLSI method; format: functional
[18] = tested on: Staphylococcus aureus; experiment: Downregulation of mecA mRNA expression in methicillin-resistant Staphylococcus aureus ATCC 43300 at 32 ug/ml after 4 hrs by RT-PCR analysis; format: functional, organism-based
[19] = tested on: Staphylococcus aureus; experiment: Antibacterial activity against methicillin-resistant Staphylococcus aureus ATCC 43300 after 20 to 24 hrs by CLSI method; format: functional
[20] = tested on: Staphylococcus aureus; experiment: Potentiation of cefuroxime mediated antibacterial activity against methicillin-resistant Staphylococcus aureus ATCC 43300 assessed as decrease in cefuroxime MIC at 32 ug/ml by checkerboard method relative to control; format: functional
[21] = tested on: Staphylococcus aureus; experiment: Potentiation of oxacillin-mediated antibacterial activity against methicillin-resistant Staphylococcus aureus R50 clinical isolate assessed as decrease in oxacillin MIC at 16 ug/ml after 20 to 24 hrs by CLSI method relative to control; format: functional

Question: Which results are given for `CCCCCCCCCCCCOCc1cn([C@@H]2O[C@H](CO)[C@@H](O)[C@H](O)[C@H]2O)nn1`?
Answer: Activity [1]: inactive; fold change (FC) [2]: <=256; MIC [3]: 32 µg/mL; Activity [4]: Non-toxic; MIC [5]: 4 µg/mL; fold change (FC) [6]: <=256; MIC [7]: 128 µg/mL; fold change (FC) [8]: <=256; MIC [9]: < 1 µg/mL; MIC [10]: 8 µg/mL; MIC [11]: 4 µg/mL; MIC [12]: 256 µg/mL; MIC [13]: 16 µg/mL; growth inhibition (GI) [14]: inactive; MIC [15]: 64 µg/mL; growth inhibition (GI) [16]: Active; MIC [17]: 256 µg/mL; Activity [18]: Active; MIC [19]: 256 µg/mL (≈ 596 µM); fold change (FC) [20]: <=256; MIC [21]: 8 µg/mL
